Where a SMILES comes first, the peptide text is derived from it. The star is where a group is joined. Cbz = O=C(OCc1ccccc1)*; CH2F = FC*
Legend:
Assay type in all cases: cell-based, human
AML blasts [1] = experiment: Functional apoptosis and DNA damage response assay, AML study No. 1 (c-PARP, cleaved caspases, p-Chk2)
Description: Multi-parameter flow cytometric analysis was performed on peripheral blasts taken at diagnosis from 9 AML patients who achieved a complete response (CR) and 24 patients who were non-responders (NR) to one cycle of standard 7+3 induction therapy (100-200 mg/m2 cytarabine and 60 mg/m2 daunorubicin). The signaling nodes were organized into 4 biological categories: 1) Protein expression of receptors and drug transporters 2) Response to cytokines and growth factors, 3) Phosphatase activity, and 4) Apoptotic signaling pathways.
A viable cell will be Aqua negative and PARP negative and a measure of cell death is PARP and/or Aqua positivity. “Apoptosis”=% of PARP^−Aqua^−unstim−% of PARP^−Aqua^−Drug.
Functional assays were performed as previously described. Cells were incubated with modulators (Table 18), at 37° C. for 3-15 minutes, fixed with 1.6% paraformaldehyde (final concentration) for 10 minutes at 37° C., pelleted and permeabilized with 100% ice-cold methanol and stored at −80° C.
The median fluorescence intensity (MFI) was computed for each node from the fluorescence intensity levels for the cells in the myeloid population. The MFI values were then used to compute a variety of metrics by comparing them to baseline or background values, including the unmodulated condition, cellular autofluorescence and antibody isotype controls. The following metrics were computed: • 1. Basal MFI (“Basal”)=log2(MFIUnmodulated Stained)−log2(MFIGated Unstained (Autofluoresence)), designed to measure the basal levels of a certain protein under unmodulated conditions. • 2. Fold Change MFI (“Fold”)=log2(MFIModulated Stained)−log2(MFIUnmodulated Stained), a measure of the change in the activation state of a protein under modulated conditions. • 3. Total Phospho MFI (“TotalPhospho”)=log2(MFIModulated Stained)−log2(MFIGated Unstained (Autofluorescence)), a measure of the total levels of a protein under modulated conditions. • 4. Relative Protein Expression (“Rel. Expression”)=log2(MFIstain)−log2(MFIControl), a measure of the levels of surface marker staining relative to control antibody staining. • 5. […] An additional metric was designed to measure the levels of cellular apoptosis in response to cytotoxic drugs: Quadrant (“Quad”)=a measure of the percentage of cells in a flow cytometry quadrant region defined by p-Chk2 and c-PARP i.e. the % of cells that are both p-Chk2- and c-PARP+.

AML blasts [2] = experiment: SCNP / phospho-flow modulated signaling assay, AML study No. 1 (PBMC at diagnosis, CR vs NR)
Description: The present illustrative example represents how to analyze cells in one embodiment of the present invention. There are several steps in the process, such as the stimulation step, the staining step and the flow cytometry step. The stimulation step of the phospho-flow procedure can start with vials of frozen cells and end with cells fixed and permeabilized in methanol. Then the cells can be stained with an antibody directed to a particular protein of interest and then analyzed using a flow cytometer.
Frozen cells are thawed in a 37° C. water bath and gently resuspended in the vial and transferred to the 15 mL conical tube. The 15 mL tube is centrifuged at 930 RPM (200×g) for 8 minutes at room temperature. The supernatant is aspirated and the pellet is gently resuspended in 1 mL media A. The cell suspension is filtered through a 70 um cell strainer into a new 15 mL tube. The cell strainer is rinsed with 1 mL media A and another 12 ml of media A into the 15 mL tube. The cells are mixed into an even suspension. A 20 μL aliquot is immediately removed into a 96-well plate containing 180 μL PBS+4% FBS+CD45 Alexa 700+PI to determine cell count and viability post spin. After the determination, the 15 mL tubes are centrifuged at 930 RPM (200×g) for 8 minutes at room temperature. The supernatant is aspirated and the cell pellet is gently resuspended in 4 mL PBS+4 μL Amine Aqua and incubated for 15 min in a 37° C. incubator. 10 mL RPMI+1% FBS is added to the cell suspension and the tube is inverted to mix the cells. The 15 mL tubes are centrifuged at 930 RPM (200×g) for 8 minutes at room temperature. The cells are resuspended in Media A at the desired cell concentration (1.25×10^6/mL). For samples with low numbers of cells (<18.5×10^6), the cells are resuspended in up to 15 mL media. For samples with high numbers of cells (>18.5×10^6), the volume is raised to 10 mL with media A and the desired volume is transferred to a new 15 mL tube, and the cell concentration is adjusted to 1.25×10^6 cells/ml. 1.6 mL of the above cell suspension (concentration at 1.25×10^6 cells/ml) is transferred into wells of a multi-well plate. From this plate, 80 ul is dispensed into each well of a subsequent plate. The plates are covered with a lid (Nunc) and placed in a 37° C. incubator for 2 hours to rest.
A concentration for each stimulant that is five folds more (5×) than the final concentration is prepared using Media A as diluent. 5× stimuli are arrayed into wells of a standard 96 well v-bottom plate that correspond to the wells on the plate with cells to be stimulated.
Adding the stimulant: The cell plate(s) are taken out of the incubator and placed in a 37° C. water bath next to the pipette apparatus. The cell plate is taken from the water bath and gently swirled to resuspend any settled cells. With pipettor, the stimulant is dispensed into the cell plate and vortexed at “7” for 5 seconds. The deep well plate is put back into the water bath.
Adding Fixative: 200 μl of the fixative solution (final concentration at 1.6%) is dispensed into wells and then mixed on the titer plate shaker on high for 5 seconds. The plate is covered with foil sealer and incubated in a 37° C. water bath for 10 minutes. The plate is spun for 6 minutes at 2000 rpm at room temperature. The cells are aspirated using a 96 well plate aspirator (VP Scientific). The plate is vortexed to resuspend cell pellets in the residual volume. The pellet is ensured to be dispersed before the Methanol step (see cell permeabilization) or clumping will occur.
Cell Permeabilization: Permeability agent, for example methanol, is added slowly and while the plate is vortexing. To do this, the cell plate is placed on titer plate shaker and made sure it is secure. The plate is set to shake using the highest setting. A pipetter is used to add 0.6 mls of 100% methanol to the plate wells. The plate(s) are put on ice until this step has been completed for all plates.

AML myeloblasts (BMMC) = experiment: SCNP of paired diagnosis and relapse AML BMMC and independent diagnostic set (Example 5); details: paired diagnosis samples of Patients 1 and 2
Description: All AML bone marrow mononuclear cells (BMMC) were derived from the bone marrow (BM) of AML patients treated at MD Anderson Cancer Center (MDACC) between September 1999 and September 2006. Clinical data were de-identified in compliance with Health Insurance Portability and Accountability Act regulations. Patient/sample inclusion criteria required a diagnosis of French-American-British (FAB) classification of M0 through M7 AML (excluding M3) AML, collection prior to therapy initiation and at least 50% viability upon sample thaw. For the identification of chemoresistant signaling profiles, two longitudinally paired BMMC samples at diagnosis (collection prior to the initiation of induction chemotherapy) and first relapse, were examined. An independent test set comprised of 47 BMMC samples collected at diagnosis from AML patients with a disease response of CR after high dose cytarabine based chemotherapy was used to assess the ability of the identified signaling profiles to predict disease relapse. Healthy, unstimulated BMMC (n=2) were purchased from a commercial source (All Cells) to serve as a control. All samples underwent fractionation over Ficoll-Hypaque prior to cryopreservation with 90% fetal bovine serum and 10% dimethyl sulfoxide and storage in liquid nitrogen.
The SCNP assay measured response to growth factors and cytokines involved in hematopoietic progenitor or myeloid biology (SCF, FLT3L, G-CSF, IL-27), drug transporter (ABCG2, MRP-1) and chemokine receptors (CXCR4) associated with adverse disease prognosis in AML, and the c-Kit growth factor receptor for SCF. The SCF and FLT3L-mediated PI3K/Akt and MAPK pathway is important for maintaining the hematopoietic stem cell pool; G-CSF-mediated Jak/STAT pathway activation is important for neutrophilic differentiation of hematopoietic progenitor cells; interleukin (IL)-27 mediated Jak/STAT pathway activation is important in regulating proliferation and differentiation of hematopoietic stem cells; CXCR4 expression is associated with disease relapse and decreased survival; and drug transporter expression levels (i.e. ABCG2 and MRP-1) are known to be associated with adverse prognosis in AML. All together, approximately 20 signaling nodes were evaluated in each sample.
SCNP assays were performed as described previously. Cryopreserved samples were thawed at 37° C. and washed once in warm PBS containing 10% FBS (HyClone, Waltham, Mass., USA) and 2 mM EDTA. […] The cells were re-suspended in RPMI containing 1% FBS, aliquoted to 100,000 cells/condition and rested for 1-2 hours at 37° C. […]

[3] = Study No. 1 sensitivity analysis, CR samples
[4] = Study No. 1 sensitivity analysis, NR samples incl. CRp

## CN[C@@H]1C[C@H]2O[C@@](C)([C@@H]1OC)n1c3ccccc3c3c4c(c5c6ccccc6n2c5c31)C(=O)NC4 [Staurosporine]
AML blasts [1]
  cell death as determined by cleaved PARP and cleaved Caspase 8: failed to undergo cell death
  cleaved PARP and caspase 8: significant populations of cells with cleaved PARP and caspase 8
  in vitro apoptotic response in the context of FLT3 mutations: greatest apoptotic responses were those that expressed FLT3 ITD
  phosphorylated Chk2: increase in phosphorylated Chk2

## COC(=O)CC(NC(=O)C(C)NC(=O)C(NC(=O)OCc1ccccc1)C(C)C)C(=O)CF (stereo not drawn) [Z-VAD, benzyloxycarbonyl-Val-Ala-Asp (OMe) fluoromethylketone] (Cbz-Val-Ala-Asp(OMe)-CH2F; configuration not given here)
AML blasts [1]; samples 0341, 0521
  cleavage of caspase 3 and PARP on co-incubation with Z-VAD: inhibited cleavage of caspase 3 and PARP to near completion
AML blasts [1]; samples 8303, 8402
  PARP cleavage on co-incubation with Z-VAD: only partially inhibited

## SCF: stem cell factor
AML blasts [2]; [3]
  Mean Value of CRs, p-Akt Fold: 0.09
  Mean Value of CRs, p-CREB Total Phospho: 1.32
  Mean Value of CRs, p-Erk Fold: −0.06
  Mean Value of CRs, p-Plcγ2 Total Phospho: 1.80
AML blasts [2]; [4]
  Mean Value of NRs, p-Akt Fold: 0.56
  Mean Value of NRs, p-CREB Total Phospho: 1.92
  Mean Value of NRs, p-Erk Fold: 0.11
  Mean Value of NRs, p-Plcγ2 Total Phospho: 2.79
AML myeloblasts (BMMC)
  responsive cells in diagnostic AML bone marrow samples: ~1%

B1: G-CSF: granulocyte colony-stimulating factor (protein, UniProt P09919 31-207, looked up)
Granulocyte …: TPLGPASSLPQSFLLKCLEQVRKIQGDGAALQEKLVSECATYKLCHPEELVLLGHSLGIPWAPLSSCPSQALQLAGCLSQLHSGLFLYQGLLQALEGISPELGPTLDTLQLDVADFATTIWQQMEELGMAPALQPTQGAMPAFASAFQRRAGGVLVASHLQSFLEVSYRVLRHLAQP
AML blasts [2]; Staurosporine Resistant category vs other apoptosis categories
  increase in p-Akt and p-S6 levels: greatest increase in p-Akt and p-S6 levels
AML blasts [2]; [3]
  Mean Value of CRs, p-Stat3 Fold: 0.60
  Mean Value of CRs, p-Stat3 Total Phospho: 1.40
  Mean Value of CRs, p-Stat5 Fold: 0.33
AML blasts [2]; [4]
  Mean Value of NRs, p-Stat3 Total Phospho: 2.74
  Mean Value of NRs, p-Stat5 Fold: 1.15
AML blasts [2]; Study No. 1 sensitivity analysis, NR samples incl. CRp, negative = down regulation
  Mean Value of NRs, p-Stat3 Fold: 1.52
AML blasts [2]; all samples of the Staurosporine Resistant apoptosis category
  Jak/Stat response (G-CSF: p-Stat3, p-Stat5; GM-CSF: p-Stat5): Robust Jak/Stat responses
AML myeloblasts (BMMC)
  responsive cells in diagnostic AML bone marrow samples: ~1%
